Calls of active or inactive are those of the source. The calls are words filed in the database; no cut-off is given here.
Key:
[1] = biological target: T1, ALK tyrosine kinase receptor (Homo sapiens, UniProt Q9UM73); experiment: Induction of ALK degradation in human SR cells at 10 uM after 16 hrs by Western blot analysis; type: cell-based
Target sequence in this assay (Q9UM73 19-1620 limits assumed): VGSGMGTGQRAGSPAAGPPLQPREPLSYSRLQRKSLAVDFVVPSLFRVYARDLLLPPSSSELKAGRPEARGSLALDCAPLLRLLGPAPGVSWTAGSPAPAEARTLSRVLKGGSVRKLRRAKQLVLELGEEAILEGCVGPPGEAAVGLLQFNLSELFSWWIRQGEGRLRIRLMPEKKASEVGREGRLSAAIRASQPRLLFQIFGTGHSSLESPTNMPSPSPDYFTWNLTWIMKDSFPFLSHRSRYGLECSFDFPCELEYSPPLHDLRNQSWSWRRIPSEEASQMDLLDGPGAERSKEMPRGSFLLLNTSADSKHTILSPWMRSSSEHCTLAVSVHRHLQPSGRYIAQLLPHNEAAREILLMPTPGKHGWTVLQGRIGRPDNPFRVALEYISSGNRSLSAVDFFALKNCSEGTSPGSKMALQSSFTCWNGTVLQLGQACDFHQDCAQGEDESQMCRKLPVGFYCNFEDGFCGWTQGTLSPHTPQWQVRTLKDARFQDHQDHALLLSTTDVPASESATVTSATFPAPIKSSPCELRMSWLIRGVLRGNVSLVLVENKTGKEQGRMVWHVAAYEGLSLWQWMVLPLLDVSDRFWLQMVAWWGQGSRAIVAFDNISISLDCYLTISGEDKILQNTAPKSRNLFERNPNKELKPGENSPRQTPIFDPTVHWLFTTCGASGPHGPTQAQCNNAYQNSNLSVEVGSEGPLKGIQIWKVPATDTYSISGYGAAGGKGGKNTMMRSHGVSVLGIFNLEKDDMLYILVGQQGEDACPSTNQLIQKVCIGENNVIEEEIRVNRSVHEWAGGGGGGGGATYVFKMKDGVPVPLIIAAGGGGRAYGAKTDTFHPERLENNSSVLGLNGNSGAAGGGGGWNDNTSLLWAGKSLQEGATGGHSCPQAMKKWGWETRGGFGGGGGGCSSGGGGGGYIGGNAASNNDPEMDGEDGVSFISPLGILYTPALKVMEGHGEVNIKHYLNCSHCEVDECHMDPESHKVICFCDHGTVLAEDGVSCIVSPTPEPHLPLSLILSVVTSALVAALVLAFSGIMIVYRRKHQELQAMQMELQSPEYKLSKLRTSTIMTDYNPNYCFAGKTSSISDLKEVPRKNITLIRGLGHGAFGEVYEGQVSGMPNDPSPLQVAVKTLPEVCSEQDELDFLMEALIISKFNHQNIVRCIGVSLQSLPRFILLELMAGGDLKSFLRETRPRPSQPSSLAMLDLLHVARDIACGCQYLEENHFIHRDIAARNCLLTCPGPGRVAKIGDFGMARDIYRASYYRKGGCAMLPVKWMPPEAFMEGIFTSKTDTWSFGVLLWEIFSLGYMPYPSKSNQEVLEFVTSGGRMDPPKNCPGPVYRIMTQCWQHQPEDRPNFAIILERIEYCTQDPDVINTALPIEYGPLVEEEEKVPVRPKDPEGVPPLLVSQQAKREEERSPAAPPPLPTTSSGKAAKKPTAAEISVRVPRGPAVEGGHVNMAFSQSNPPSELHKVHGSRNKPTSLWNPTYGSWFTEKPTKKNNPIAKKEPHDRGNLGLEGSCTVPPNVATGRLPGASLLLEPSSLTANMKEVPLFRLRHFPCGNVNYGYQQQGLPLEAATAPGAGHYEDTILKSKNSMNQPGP

[2] = tested on: Receptor-type tyrosine-protein kinase FLT3 (Homo sapiens), P36888 [K663Q]; experiment: Binding affinity to human partial length FLT3 K663Q mutant (V592 to Y969 residues) expressed in bacterial expression system assessed as residual binding level at 100 nM by Kinomescan method relative to control
Calu-1 [3] = experiment: Down regulation of FAK in human Calu-1 cells at 1 to 1000 nM after 16 hrs by Western blot analysis; type: functional, cell-based; details: dose 1-1000 nM
[4] = tested on: Epidermal growth factor receptor (Homo sapiens), P00533 [L858R,T790M]; experiment: Binding affinity to human partial length EGFR L858R/T790M double mutant (R669 to V1011 residues) expressed in mammalian expression system assessed as residual binding level at 100 nM by Kinomescan method relative to control
[5] = tested on: Epidermal growth factor receptor (Homo sapiens), P00533 [UNDEFINED MUTATION]; experiment: Binding affinity to human partial length EGFR L747-E749del/A750P mutant expressed in bacterial expression system assessed as residual binding level at 100 nM by Kinomescan method relative to control
[6] = biological target: T1, ALK tyrosine kinase receptor; experiment: Induction of ALK degradation in human SR cells at 100 nM pretreated with proteosome inhibitor MG132 for 4 hrs followed by compound addition and measured after 16 hrs by Western blot analysis; type: cell-based
Target sequence in this assay (Q9UM73 19-1620 limits assumed): as above

NCI-H1975 = experiment: Antiproliferative activity against human H1975 cells overexpressing EGFR L858R/T790M mutant assessed as cell growth inhibition after 72 hrs; type: functional, cell-based; details: NCI-H1975, 72 h
[7] = Metabolic stability in human liver microsomes assessed as intrinsic clearance preincubated for 10 mins followed by NADPH regenerating system addition and measured after 10 mins by LC-MS/MS analysis; type: ADME, Microsome; details: time 20 min, read-out: CLH
[8] = biological target: NPM/ALK (Nucleophosmin/ALK tyrosine kinase receptor) (Homo sapiens) (UniProt Q9UM73+P06748); experiment: Induction of NPM-ALK degradation in human SR cells at 0.1 to 50 nM by Western blot analysis; type: cell-based; details: dose 0.1-50 nM
[9] = biological target: Tyrosine-protein kinase JAK3 (Homo sapiens) (UniProt P52333); experiment: Binding affinity to wild-type human partial length JAK3 JH1 catalytic domain (I781 to S1124 residues) expressed in mammalian expression system assessed as residual binding level at 100 nM by Kinomescan method relative to control
[10] = biological target: Protein-tyrosine kinase 2-beta (Homo sapiens) (UniProt Q14289); experiment: Binding affinity to wild-type human full length PYK2 (M1 to E967 residues) expressed in bacterial expression system assessed as residual binding level at 100 nM by Kinomescan method relative to control
SR [11] = experiment: Induction of G1 cell cycle arrest in human SR cells at 100 nM after 24 to 48 hrs; type: functional, cell-based; details: time 24-48 hrs
Calu-1 [12] = experiment: Induction of apoptosis in human Calu-1 cells at 100 nM after 72 hrs; type: functional, cell-based
[13] = AUC in […] at 10 mg/kg, po or 2 mg/kg, iv measured upto 24 hrs; type: ADME, organism-based; set-up: dose 10 mg/kg, time <=24; details: in vivo
[14] = biological target: Focal adhesion kinase 1 (Homo sapiens) (UniProt Q05397); experiment: Induction of FAK degradation in human A549 cells at 1 nM after 16 hrs by Western blot analysis; type: cell-based
[15] = tested on: Receptor-type tyrosine-protein kinase FLT3 (Homo sapiens), P36888 [D835V]; experiment: Binding affinity to human partial length FLT3 D835V mutant (V592 to Y969 residues) expressed in bacterial expression system assessed as residual binding level at 100 nM by Kinomescan method relative to control
[16] = biological target: Serine/threonine-protein kinase ULK1 (Homo sapiens) (UniProt O75385); experiment: Binding affinity to wild-type human partial length ULK1 (M1 to T309 residues) expressed in mammalian expression system assessed as residual binding level at 100 nM by Kinomescan method relative to control
[17] = biological target: Focal adhesion kinase 1 (Homo sapiens) (UniProt Q05397); experiment: Induction of FAK degradation in human Calu-1 cells at 1 nM after 16 hrs by Western blot analysis; type: cell-based
[18] = biological target: Protein-tyrosine kinase 2-beta (Homo sapiens) (UniProt Q14289); experiment: Induction of PYK2 degradation in human SR cells at 1 nM after 16 hrs by Western blot analysis; type: cell-based
[19] = tested on: Receptor-type tyrosine-protein kinase FLT3 (Homo sapiens), P36888 [UNDEFINED MUTATION]; experiment: Binding affinity to human partial length FLT3 ITD/D835V double mutant expressed in bacterial expression system assessed as residual binding level at 100 nM by Kinomescan method relative to control
[20] = tested on: Receptor-type tyrosine-protein kinase FLT3 (Homo sapiens), P36888 [UNDEFINED MUTATION]; experiment: Binding affinity to human partial length FLT3 ITD/F691L double mutant expressed in bacterial expression system assessed as residual binding level at 100 nM by Kinomescan method relative to control
[21] = biological target: Signal transducer and activator of transcription 3 (Homo sapiens) (UniProt P40763); experiment: Inhibition of STAT3 downstream signalling in human NCI-H2228 cells assessed as reduction in pSTAT3 level at 1 to 1000 nM by Western blot analysis; type: cell-based; details: dose 1-1000 nM
[22] = biological target: Serine/threonine-protein kinase Chk2 (Homo sapiens) (UniProt O96017); experiment: Binding affinity to wild-type human partial length CHEK2 (S253 to E574 residues) expressed in bacterial expression system assessed as residual binding level at 100 nM by Kinomescan method relative to control
[23] = biological target: ALK tyrosine kinase receptor (Homo sapiens, UniProt Q9UM73, G1202R); experiment: Binding affinity to ALK G1202R mutant (unknown origin)
[24] = biological target: Serine/threonine-protein kinase SBK1 (Homo sapiens) (UniProt Q52WX2); experiment: Binding affinity to wild-type human partial length SBK1 (P23 to P348 residues) expressed in mammalian expression system assessed as residual binding level at 100 nM by Kinomescan method relative to control
[25] = biological target: Focal adhesion kinase 1 (Homo sapiens) (UniProt Q05397); experiment: Induction of FAK degradation in human NCI-H2228 cells at 1 nM after 16 hrs by Western blot analysis; type: cell-based
[26] = biological target: T1, ALK tyrosine kinase receptor; experiment: Induction of ALK degradation in human SR cells at 100 nM after 8 to 24 hrs by Western blot analysis; type: cell-based; details: time 8-24 hrs
Target sequence in this assay (Q9UM73 19-1620 limits assumed): as above

[27] = biological target: T1, ALK tyrosine kinase receptor; experiment: Induction of ALK degradation in human SR cells at 100 nM pretreated with proteosome inhibitor MLN4924 for 4 hrs followed by compound addition and measured after 16 hrs by Western blot analysis; type: cell-based
Target sequence in this assay (Q9UM73 19-1620 limits assumed): as above

MDA-MB-231 = experiment: Induction of G1 cell cycle arrest in human MDA-MB-231 cells at 100 nM after 24 to 48 hrs; type: functional, cell-based; details: time 24-48 hrs
A549 = experiment: Down regulation of FAK in human A549 cells at 1 to 1000 nM after 16 hrs by Western blot analysis; type: functional, cell-based; details: dose 1-1000 nM
SR [28] = experiment: Antiproliferative activity against human SR cells assessed as inhibition of cell growth incubated for 72 hrs by CCK8 assay; type: functional, cell-based
Calu-1 [29] = experiment: Down regulation of C-myc protein expression in human Calu-1 cells at 1 to 500 nM after 48 hrs by Western blot analysis; type: functional, cell-based; details: dose 1-500 nM
[30] = biological target: T1, ALK tyrosine kinase receptor; experiment: Binding affinity to ALK (unknown origin)

Focal adhesion kinase 1 (Homo sapiens), sequence (Q05397 2-1052 limits assumed): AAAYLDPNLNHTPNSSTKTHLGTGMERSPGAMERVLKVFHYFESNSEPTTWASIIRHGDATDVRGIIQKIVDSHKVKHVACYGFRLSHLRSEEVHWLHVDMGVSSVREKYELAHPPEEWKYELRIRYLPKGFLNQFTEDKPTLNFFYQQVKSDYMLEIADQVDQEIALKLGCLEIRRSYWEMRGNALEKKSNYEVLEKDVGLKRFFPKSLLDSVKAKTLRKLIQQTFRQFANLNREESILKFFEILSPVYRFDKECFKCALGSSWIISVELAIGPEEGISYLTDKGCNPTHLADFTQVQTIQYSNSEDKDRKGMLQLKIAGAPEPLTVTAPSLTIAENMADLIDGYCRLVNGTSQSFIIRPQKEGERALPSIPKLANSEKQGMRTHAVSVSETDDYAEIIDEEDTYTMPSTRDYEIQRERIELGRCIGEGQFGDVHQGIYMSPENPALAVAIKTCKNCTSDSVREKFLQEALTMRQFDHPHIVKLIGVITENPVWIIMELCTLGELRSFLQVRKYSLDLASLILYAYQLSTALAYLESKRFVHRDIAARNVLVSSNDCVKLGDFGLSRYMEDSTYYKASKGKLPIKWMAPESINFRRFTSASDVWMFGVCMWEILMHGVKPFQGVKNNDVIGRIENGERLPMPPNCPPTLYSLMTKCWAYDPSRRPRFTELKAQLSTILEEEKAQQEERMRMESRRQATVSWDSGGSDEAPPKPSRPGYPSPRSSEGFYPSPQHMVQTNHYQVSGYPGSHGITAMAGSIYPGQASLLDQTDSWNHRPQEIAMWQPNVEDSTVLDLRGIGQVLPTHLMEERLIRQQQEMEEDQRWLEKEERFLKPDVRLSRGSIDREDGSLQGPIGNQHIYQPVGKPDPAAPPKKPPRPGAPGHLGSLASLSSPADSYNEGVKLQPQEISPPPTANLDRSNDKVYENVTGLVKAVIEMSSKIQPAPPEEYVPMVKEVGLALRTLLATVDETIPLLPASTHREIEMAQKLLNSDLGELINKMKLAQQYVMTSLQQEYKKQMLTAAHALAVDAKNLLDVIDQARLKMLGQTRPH
Protein-tyrosine kinase 2-beta (Homo sapiens), sequence (Q14289 whole entry, looked up, the tested form may be a part): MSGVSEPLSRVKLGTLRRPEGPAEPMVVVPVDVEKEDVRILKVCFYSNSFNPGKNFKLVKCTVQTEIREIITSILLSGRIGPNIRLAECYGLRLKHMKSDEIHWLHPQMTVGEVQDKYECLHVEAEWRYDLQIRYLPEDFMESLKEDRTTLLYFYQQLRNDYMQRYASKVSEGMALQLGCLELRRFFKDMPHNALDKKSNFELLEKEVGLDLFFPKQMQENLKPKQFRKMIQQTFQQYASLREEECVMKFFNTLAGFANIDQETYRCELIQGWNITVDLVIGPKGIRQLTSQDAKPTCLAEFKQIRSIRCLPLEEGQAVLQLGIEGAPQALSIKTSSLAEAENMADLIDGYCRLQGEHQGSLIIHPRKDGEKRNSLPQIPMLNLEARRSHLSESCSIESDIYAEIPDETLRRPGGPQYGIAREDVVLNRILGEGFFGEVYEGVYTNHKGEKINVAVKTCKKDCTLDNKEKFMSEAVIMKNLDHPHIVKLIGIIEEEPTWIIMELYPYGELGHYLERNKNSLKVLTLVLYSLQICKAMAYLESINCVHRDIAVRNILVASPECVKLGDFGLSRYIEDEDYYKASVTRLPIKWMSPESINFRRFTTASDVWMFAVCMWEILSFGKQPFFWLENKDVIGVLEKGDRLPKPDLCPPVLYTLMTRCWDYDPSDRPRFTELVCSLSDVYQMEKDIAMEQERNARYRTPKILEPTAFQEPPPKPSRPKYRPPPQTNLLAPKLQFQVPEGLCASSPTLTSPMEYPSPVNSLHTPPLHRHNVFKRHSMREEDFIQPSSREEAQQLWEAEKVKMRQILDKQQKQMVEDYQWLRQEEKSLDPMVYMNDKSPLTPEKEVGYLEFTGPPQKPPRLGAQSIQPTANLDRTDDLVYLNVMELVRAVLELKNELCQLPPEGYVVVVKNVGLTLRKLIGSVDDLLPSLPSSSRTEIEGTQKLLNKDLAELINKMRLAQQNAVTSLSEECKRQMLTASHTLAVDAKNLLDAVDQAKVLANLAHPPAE
Serine/threonine-protein kinase SBK1 (Homo sapiens), sequence (Q52WX2 whole entry, the tested form may be a part): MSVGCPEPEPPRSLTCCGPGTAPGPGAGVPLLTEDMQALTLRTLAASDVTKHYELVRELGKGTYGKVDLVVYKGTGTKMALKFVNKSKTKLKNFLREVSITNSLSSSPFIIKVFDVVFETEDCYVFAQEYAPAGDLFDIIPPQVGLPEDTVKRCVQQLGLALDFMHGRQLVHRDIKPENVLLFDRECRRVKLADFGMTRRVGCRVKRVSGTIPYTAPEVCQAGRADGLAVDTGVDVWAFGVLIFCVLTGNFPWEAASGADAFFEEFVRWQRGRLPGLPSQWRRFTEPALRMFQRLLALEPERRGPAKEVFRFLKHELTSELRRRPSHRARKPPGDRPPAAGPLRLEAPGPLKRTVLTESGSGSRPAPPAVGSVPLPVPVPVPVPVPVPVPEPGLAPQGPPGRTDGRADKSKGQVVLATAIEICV
Signal transducer and activator of transcription 3 (Homo sapiens), sequence (P40763 whole entry, the tested form may be a part): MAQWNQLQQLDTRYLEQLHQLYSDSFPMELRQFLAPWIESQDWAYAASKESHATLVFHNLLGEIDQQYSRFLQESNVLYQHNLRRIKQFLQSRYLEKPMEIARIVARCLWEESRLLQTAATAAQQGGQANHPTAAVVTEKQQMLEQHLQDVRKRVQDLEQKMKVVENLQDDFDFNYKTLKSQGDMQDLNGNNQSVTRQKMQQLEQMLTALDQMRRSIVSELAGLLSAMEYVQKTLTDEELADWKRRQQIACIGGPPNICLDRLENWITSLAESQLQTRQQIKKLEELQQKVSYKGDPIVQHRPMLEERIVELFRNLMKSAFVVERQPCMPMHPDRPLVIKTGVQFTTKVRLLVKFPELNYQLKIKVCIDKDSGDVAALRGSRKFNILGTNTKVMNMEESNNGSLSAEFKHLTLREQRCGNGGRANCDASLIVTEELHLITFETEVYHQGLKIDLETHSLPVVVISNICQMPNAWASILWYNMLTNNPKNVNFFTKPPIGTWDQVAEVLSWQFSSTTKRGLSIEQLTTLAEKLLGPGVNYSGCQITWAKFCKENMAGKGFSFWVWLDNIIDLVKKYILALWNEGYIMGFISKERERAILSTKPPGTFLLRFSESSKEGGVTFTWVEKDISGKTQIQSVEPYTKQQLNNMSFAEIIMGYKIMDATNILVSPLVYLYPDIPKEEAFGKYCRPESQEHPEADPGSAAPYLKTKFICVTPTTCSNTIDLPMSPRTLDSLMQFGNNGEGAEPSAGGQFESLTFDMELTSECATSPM
ALK tyrosine kinase receptor (Homo sapiens, UniProt Q9UM73, G1202R), sequence (Q9UM73 19-1620 G1202R limits assumed): as the sequence (Q9UM73 19-1620 limits assumed) above, with G1184R counted along it

In the case of COc1cc(N2CCC(N3CCN(C(=O)CNc4cccc5c4C(=O)N(C4CCC(=O)NC4=O)C5=O)CC3)CC2)ccc1Nc1ncc(Cl)c(Nc2ccccc2P(C)(C)=O)n1 (stereo not drawn), the Activity [1] is reported as “Active”, the Activity [2] is reported as 4.3% and the Activity (Calu-1 [3]) is reported as “Active”. The Activity [4] was 3.5%, the Activity [5] was 6.9% and the Activity [6] was “inactive”. The IC50 (NCI-H1975) was 42 nM, the CLint scaled [7] was 1.36 L/h/kg and the Activity [8] was “Active”. For the same molecule, the Activity [9] was 1%, the Activity [10] was 3.5% and the Activity (SR [11]) was “Active”. The Activity (Calu-1 [12]) was “inactive”, the AUC at 24 h [13] was 1.56 µg·h/mL and the Activity [14] was “Active”. For the same molecule, the Activity [15] was 0%, the Activity [16] was 1.6% and the Activity [17] was “Active”. For the same molecule, the Activity [18] was “Active”, the Activity [19] was 1% and the Activity [20] was 0%. For the same molecule, the inhibition [21] was “inactive”, the Activity [22] was 0% and the IC50 [23] was 6.6 nM. For the same molecule, the Activity [24] was 3.9%, the Activity [25] was “Active” and the Activity [26] was “Active”. The Activity [27] was “inactive”, the Activity (MDA-MB-231) was “Active” and the Activity (A549) was “Active”. The IC50 (SR [28]) was 2 nM, the Activity (Calu-1 [29]) was “Active” and the IC50 [30] was 2.5 nM.
